Here are results for 7 compounds from PubChem BioAssay (NCI).

Some test systems named below: MDA-MB-231 breast; OVCAR-3 ovarian; A549 NSCLC; SK-MEL-5 melanoma; NCI-H226 lung; ACHN renal; DU-145 prostate; UACC-62 melanoma; T-47D breast; NCI-H522 lung.
Assay in all cases: inhibition of tumour cell growth, NCI panel, 48 h

The structures appear in SMILES notation. Several values for one entry are separate records, joined by “and”; a condition that tells them apart may be missing. Equal values may be shown once.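 In this assay, cells in 96-well plates receive the compound at five concentrations for 48 hours. Endpoints are linearly interpolated between the surrounding concentrations. At the GI50, growth is halved. TGI marks complete inhibition of growth.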 Some results are limits rather than exact numbers.

`COc1cccc(OCCCN)c1-c1cc(Nc2cnc(C#N)cn2)n[nH]1`: the GI50 with MDA-MB-231 breast was 0.933 µM; with OVCAR-3 ovarian, 0.00761 µM and < 0.0155 µM; with A549 NSCLC it was 0.035 µM and 0.0452 µM; with SK-MEL-5 melanoma, 0.0318 µM and 0.0224 µM; with NCI-H226 lung, 2.23 µM; in the assay on ACHN renal it was 0.00332 µM. Moreover, the GI50 in the assay with DU-145 prostate was 0.00769 µM and 0.0131 µM; with UACC-62 melanoma, 0.0231 µM; in the assay with T-47D breast, 7.91 µM; with NCI-H522 lung, 0.261 µM and 0.0454 µM. The TGI came to 11.9 µM in the assay with MDA-MB-231 breast; 11.4 µM in the assay on OVCAR-3 ovarian; 15.1 µM in the assay with A549 NSCLC; 1.59 µM in the assay with SK-MEL-5 melanoma; 8.39 µM with NCI-H226 lung; 0.0146 µM in the assay on ACHN renal. For the same compound, the figures for the TGI in the assay with DU-145 prostate, with T-47D breast and in the assay on NCI-H522 lung were 15.4 µM, 24 µM and 2.06 µM, respectively.

Turning to `C=C(C)[C@@H]1CC[C@]2(C)[C@H](CC=C3[C@@H]4[C@@H](C)[C@H](C)CC[C@]4(C(N)=O)CC[C@]32C)[C@@]1(C)CCC#N`, the GI50 in the assay with MDA-MB-231 breast was 8.75 µM; in the assay with OVCAR-3 ovarian, 3.45 µM; in the assay on A549 NSCLC, 3.35 µM; in the assay on SK-MEL-5 melanoma it was 2.71 µM; in the assay with NCI-H226 lung, 5.09 µM; in the assay with ACHN renal, 3.37 µM. For the same compound, the GI50 in the assay with DU-145 prostate is 4.41 µM; with UACC-62 melanoma, 5.69 µM; in the assay with T-47D breast, 2.85 µM; in the assay with NCI-H522 lung it was 3.56 µM. Moreover, the TGI in the assay with MDA-MB-231 breast was 42.8 µM; with OVCAR-3 ovarian, 10.7 µM; in the assay on A549 NSCLC, more than 100 µM; with SK-MEL-5 melanoma, 8.16 µM; in the assay with NCI-H226 lung, 27 µM; in the assay on ACHN renal it was more than 100 µM. Moreover, the TGI in the assay with DU-145 prostate is 26.4 µM; in the assay on UACC-62 melanoma, 29 µM; in the assay on T-47D breast it was more than 100 µM; with NCI-H522 lung it was 50.9 µM.

With `Nc1c([N+](=O)[O-])cc2c3c(cccc13)CC2`, the TGI in the assay with MDA-MB-231 breast, in the assay with OVCAR-3 ovarian, in the assay on A549 NSCLC, in the assay with SK-MEL-5 melanoma, with NCI-H226 lung and with ACHN renal was more than 100 µM in each case. Further, the TGI in the assay on DU-145 prostate, in the assay on UACC-62 melanoma, with T-47D breast and in the assay on NCI-H522 lung was more than 100 µM in each case.

Take `Cc1cc(NCc2cc(Nc3ccnc4cc(Cl)ccc34)ccc2F)nc(N2CCN(C)CC2)n1`: the GI50 in the assay on MDA-MB-231 breast was 1.64 µM; in the assay on OVCAR-3 ovarian it was 1.76 µM; in the assay with A549 NSCLC it was 3.07 µM; in the assay on SK-MEL-5 melanoma it was 1.69 µM; with NCI-H226 lung it was 2.22 µM; with ACHN renal it was 2.16 µM. Also, the GI50 is 2.63 µM with DU-145 prostate, 1.91 µM in the assay on UACC-62 melanoma, 2.1 µM in the assay on T-47D breast and 2.22 µM with NCI-H522 lung. For the same compound, the TGI in the assay on MDA-MB-231 breast is 3.74 µM; with OVCAR-3 ovarian it was 3.83 µM; in the assay on A549 NSCLC it was 10.9 µM; with SK-MEL-5 melanoma it was 3.07 µM; in the assay on NCI-H226 lung, 5.5 µM; with ACHN renal, 5.38 µM. Also, the TGI in the assay on DU-145 prostate amounted to 11.4 µM; in the assay with UACC-62 melanoma, 3.81 µM; in the assay on T-47D breast, 6.13 µM; in the assay with NCI-H522 lung it was 4.79 µM.

For `CC(C)COCC(CN(Cc1ccccc1)c1ccccc1)N1CCCC1` (centres undefined), the GI50 was 1.84 µM in the assay on MDA-MB-231 breast; 3.15 µM with OVCAR-3 ovarian; 3.48 µM in the assay with A549 NSCLC; 1.65 µM with SK-MEL-5 melanoma; 2.28 µM with NCI-H226 lung; 4.99 µM in the assay on ACHN renal. The GI50 with DU-145 prostate is 3.76 µM; in the assay with UACC-62 melanoma, 2.87 µM; in the assay with T-47D breast it was 1.74 µM; with NCI-H522 lung, 1.61 µM. The TGI with MDA-MB-231 breast was determined as 5.22 µM; with OVCAR-3 ovarian, 12.1 µM; with A549 NSCLC, 13.5 µM; with SK-MEL-5 melanoma it was 3.01 µM; in the assay with NCI-H226 lung, 9.48 µM; in the assay with ACHN renal, 17 µM. The TGI with DU-145 prostate amounted to 13.6 µM; in the assay on UACC-62 melanoma, 12.5 µM; in the assay with T-47D breast, 6.49 µM; with NCI-H522 lung, 3.35 µM.

`O=C1C2C(c3ccccc3)NC(c3ccccc3)C1C(c1ccccc1)NC2c1ccccc1` (centres undefined): the TGI in the assay on MDA-MB-231 breast, in the assay with OVCAR-3 ovarian, in the assay with A549 NSCLC, with SK-MEL-5 melanoma, in the assay with NCI-H226 lung and with ACHN renal was more than 100 µM throughout. Besides, the TGI in the assay on DU-145 prostate, in the assay on UACC-62 melanoma, in the assay with T-47D breast and in the assay on NCI-H522 lung was more than 100 µM each time.

Consider `O=P(CCCCP(=O)(c1ccccc1)c1ccccc1)(c1ccccc1)c1ccccc1.[Cl][Sn]([Cl])([c]1ccccc1)[c]1ccccc1`, for which the GI50 in the assay on MDA-MB-231 breast was 0.626 µM; in the assay with OVCAR-3 ovarian it was 1.61 µM; with A549 NSCLC, 3.59 µM; in the assay with SK-MEL-5 melanoma it was 1.9 µM; with NCI-H226 lung, 5.07 µM; in the assay on ACHN renal, 1.86 µM. Moreover, the GI50 is 2 µM in the assay with DU-145 prostate, 1.59 µM with UACC-62 melanoma, 0.073 µM in the assay on T-47D breast and 0.0514 µM with NCI-H522 lung. In addition, the TGI is 2.11 µM in the assay with MDA-MB-231 breast; 3.99 µM in the assay on OVCAR-3 ovarian; more than 23.6 µM in the assay with A549 NSCLC; 4.07 µM in the assay on SK-MEL-5 melanoma; 11.3 µM in the assay with NCI-H226 lung; 3.53 µM with ACHN renal. The TGI was 4.52 µM in the assay on DU-145 prostate, 3.3 µM in the assay on UACC-62 melanoma, 0.415 µM in the assay with T-47D breast and 0.208 µM in the assay with NCI-H522 lung.
